Data as given in patent US4920103A, “Modifications of mycinose and 3-O-demethylmycinose in tylosin-type macrolides” (Eli Lilly and Company, priority 1986, dated 1990).
Values after ≈ are worked out from the molar mass of the structure shown. Like-named read-outs stand apart in the source and are kept apart here.

What was measured:
[1] = tested on: Staphylococcus aureus X1.1; assay: MIC, standard agar-dilution assay, S. aureus X1.1; assay type: cell-based
Protocol: (§1) The MIC's in Table II were determined by standard agar-dilution assays. The MIC's in Table III were obtained using conventional broth-dilution microtiter tests.

[2] = tested on: Staphylococcus aureus V41; assay: MIC, standard agar-dilution assay, S. aureus V41; assay type: cell-based; conditions: Staphylococcus aureus, V41
Protocol: as §1

[3] = tested on: Staphylococcus aureus X400; assay: MIC, standard agar-dilution assay, S. aureus X400; assay type: cell-based
Protocol: as §1

[4] = tested on: Staphylococcus aureus S13E; assay: MIC, standard agar-dilution assay, S. aureus S13E; assay type: cell-based
Protocol: as §1

[5] = tested on: Staphylococcus epidermidis EPI1; assay: MIC, standard agar-dilution assay, S. epidermidis EPI1; assay type: cell-based
Protocol: as §1

[6] = tested on: Staphylococcus epidermidis 222; assay: MIC, standard agar-dilution assay, S. epidermidis 222; assay type: cell-based
Protocol: as §1

[7] = tested on: Streptococcus pyogenes C203; assay: MIC, standard agar-dilution assay, S. pyogenes C203; assay type: cell-based; conditions: Streptococcus pyogenes, C203
Protocol: as §1

[8] = tested on: Streptococcus pneumoniae Park I; assay: MIC, standard agar-dilution assay, S. pneumoniae Park I; assay type: cell-based; conditions: Streptococcus pneumoniae
Protocol: as §1

[9] = tested on: Streptococcus Group D X66; assay: MIC, standard agar-dilution assay, Streptococcus Group D X66; assay type: cell-based
Protocol: as §1

[10] = tested on: Streptococcus Group D 2041; assay: MIC, standard agar-dilution assay, Streptococcus Group D 2041; assay type: cell-based; conditions: GROUPD2041
Protocol: as §1

[11] = tested on: Haemophilus influenzae C.L.; assay: MIC, standard agar-dilution assay, H. influenzae C.L.; assay type: cell-based
Protocol: as §1

[12] = tested on: Haemophilus influenzae 76; assay: MIC, standard agar-dilution assay, H. influenzae 76; assay type: cell-based
Protocol: as §1

Escherichia coli EC14 = assay: MIC, standard agar-dilution assay, E. coli EC14; assay type: cell-based
Protocol: as §1

[13] = tested on: Klebsiella pneumoniae X68; assay: MIC, standard agar-dilution assay, K. pneumoniae X68; assay type: cell-based
Protocol: as §1

[14] = tested on: Pseudomonas aeruginosa X239; assay: MIC, standard agar-dilution assay, P. aeruginosa X239; assay type: cell-based
Protocol: as §1

[15] = tested on: Streptococcus pyogenes C203; assay: Protection of mice experimentally infected with Streptococcus pyogenes C203; assay type: in vivo; conditions: Streptococcus pyogenes, doses given 1 and 4 hours postinfection, read-out: ED50
Protocol: The formula 1 compounds have shown in vivo antimicrobial activity against experimentally-induced infections in laboratory animals. When two doses of test compound were administered to mice experimentally infected with Streptococcus pyogenes C203, the activity observed was measured as an ED50 value [effective dose in mg/kg to protect 50% of the test animals: see Warren Wick, et al., J. Bacteriol. 81, 233-235 (1961)].
^a mg/kg × 2; doses given 1 and 4 hours postinfection

[16] = agar-dilution, ampicillin-sensitive strain, read-out: MIC
[17] = agar-dilution, ampicillin-resistant strain, read-out: MIC

SMILES | MIC [1] [µg/mL] | MIC [2] [µg/mL] | MIC [3] [µg/mL] | MIC [4] [µg/mL] | MIC [5] [µg/mL] | MIC [6] [µg/mL] | MIC [7] [µg/mL] | MIC [8] [µg/mL] | MIC [9] [µg/mL] | MIC [10] [µg/mL] | MIC [11, 16] [µg/mL] | MIC [12, 17] [µg/mL] | MIC (Escherichia coli EC14; agar-dilution, read-out: MIC) [µg/mL] | MIC ([13]; agar-dilution, read-out: MIC) [µg/mL] | MIC ([14]; agar-dilution, read-out: MIC) [µg/mL] | ED50 ([15]; C203, oral) [mg/kg] | ED50 ([15]; C203, sc, subcutaneous) [mg/kg] | further results
CCC1OC(=O)CC(O)C(C)C(OC2OC(C)C(O)C(N(C)C)C2O)C(CCOc2ccccc2)CC(C)C(=O)C=CC(C)=CC1COC1OC(C)C(N2CCCCC2)C(OC)C1OC (stereo not shown) [Compound 42, 4"-Deoxy-20-DH-20-O-phenyl-4"-(piperidin-1-yl)desmycosin] | 4 (≈ 4.36 µM) | 4 (≈ 4.36 µM) | 4 (≈ 4.36 µM) | 2 (≈ 2.18 µM) | 4 (≈ 4.36 µM) | 2 (≈ 2.18 µM) | 2 (≈ 2.18 µM) | 2 (≈ 2.18 µM) | 16 (≈ 17.4 µM) | 32 (≈ 34.9 µM) | > 128 | > 128 | > 128 | > 128 | > 128 | > 100 | > 10 | 
CCC1OC(=O)CC(O)C(C)C(OC2OC(C)C(O)C(N(C)C)C2O)C(CCOc2ccccc2)CC(C)C(=O)C=CC(C)=CC1COC1OC(C)C(N=[N+]=[N-])C(OC)C1OC (stereo not shown) [Compound 25, 4"-Azido-4"-deoxy-20-DH-20-O-phenyl-desmycosin] | 4 (≈ 4.57 µM) | 4 (≈ 4.57 µM) | 4 (≈ 4.57 µM) | 4 (≈ 4.57 µM) | 4 (≈ 4.57 µM) | 4 (≈ 4.57 µM) | 8 (≈ 9.14 µM) | 8 (≈ 9.14 µM) |  | 64 (≈ 73.1 µM) | > 128 | > 128 | > 128 | > 128 | > 128 | 64 | > 10 | MIC ([9]; agar-dilution, read-out: MIC): 16 µg/mL (≈ 18.3 µM)
CCC1OC(=O)CC(O)C(C)C(OC2OC(C)C(O)C(N(C)C)C2O)C(CCOc2ccccc2)CC(C)C(=O)C=CC(C)=CC1COC1OC(C)C(OS(C)(=O)=O)C(OC)C1OC (stereo not shown) [Compound 15, 4"-O-Methanesulfonyl-20-DH-20-O-Phenyl-desmycosin] | 2 (≈ 2.15 µM) | 2 (≈ 2.15 µM) | 2 (≈ 2.15 µM) | 2 (≈ 2.15 µM) | 2 (≈ 2.15 µM) | 1 (≈ 1.08 µM) | 4 (≈ 4.31 µM) |  | 16 (≈ 17.2 µM) | 32 (≈ 34.5 µM) | 128 (≈ 138 µM) | 128 (≈ 138 µM) | > 128 | > 128 | > 128 | 29.3 | > 10 | MIC ([8]; agar-dilution, read-out: MIC): 8 µg/mL (≈ 8.62 µM)
CCC1OC(=O)CC(O)C(C)C(OC2OC(C)C(O)C(N(C)C)C2O)C(CCOc2ccccc2)CC(C)C(=O)C=CC(C)=CC1COC1OC(C)/C(=N\OC)C(OC)C1OC (stereo not shown) [Compound 6, 4"-O-Methoxyimino-20-DH-20-O-phenyl-desmycosin] | 2 (≈ 2.28 µM) | 2 (≈ 2.28 µM) | 2 (≈ 2.28 µM) | 2 (≈ 2.28 µM) | 2 (≈ 2.28 µM) | 2 (≈ 2.28 µM) | 4 (≈ 4.56 µM) | 1 (≈ 1.14 µM) | 4 (≈ 4.56 µM) | 8 (≈ 9.12 µM) | > 128 | > 128 | > 128 | > 128 | > 128 |  |  | 
CCC1OC(=O)CC(O)C(C)C(OC2OC(C)C(O)C(N(C)C)C2O)C(CCOc2ccccc2)CC(C)C(=O)C=CC(C)=CC1COC1OC(C)C(=O)C(OC)C1OC (stereo not shown) [Compound 2, 4"-Oxo-20-DH-20-O-phenyl-desmycosin] | 0.5 (≈ 0.59 µM) | 0.5 (≈ 0.59 µM) | 0.5 (≈ 0.59 µM) | 0.5 (≈ 0.59 µM) | 1 (≈ 1.18 µM) | 0.25 (≈ 0.295 µM) | 2 (≈ 2.36 µM) | 4 (≈ 4.72 µM) | 4 (≈ 4.72 µM) | 8 (≈ 9.43 µM) |  |  | > 128 | > 128 | > 128 | 85.6 | > 10 | MIC [11]: 64 µg/mL (≈ 75.5 µM); MIC [12]: 64 µg/mL (≈ 75.5 µM)
CCC1OC(=O)CC(O)C(C)C(OC2OC(C)C(O)C(N(C)C)C2O)C(CCOc2ccccc2)CC(C)C(=O)C=CC(C)=CC1COC1OC(C)C(NCc2ccccc2)C(OC)C1OC (stereo not shown) [Compound 47, 4"-Benzylamino-4"-deoxy-20-DH-20-O-phenyl-desmycosin] | 2 (≈ 2.13 µM) | 2 (≈ 2.13 µM) | 2 (≈ 2.13 µM) | 2 (≈ 2.13 µM) | 2 (≈ 2.13 µM) | 2 (≈ 2.13 µM) | 2 (≈ 2.13 µM) | 2 (≈ 2.13 µM) | 8 (≈ 8.52 µM) | 32 (≈ 34.1 µM) | 128 (≈ 136 µM) | 128 (≈ 136 µM) | > 128 | > 128 | > 128 | 70.7 | > 10 | 
CCC1OC(=O)CC(O)C(C)C(OC2OC(C)C(O)C(N(C)C)C2O)C(CCOc2ccccc2)CC(C)C(=O)C=CC(C)=CC1COC1OC(C)C(OC)C(O)C1OC (stereo not shown) [Compound 50, 4"-O-Methyl-20-DH-20-O-phenyl-lactenocin] | 0.5 (≈ 0.588 µM) | 0.5 (≈ 0.588 µM) | 0.5 (≈ 0.588 µM) | 0.5 (≈ 0.588 µM) | 0.5 (≈ 0.588 µM) | 0.25 (≈ 0.294 µM) | 4 (≈ 4.71 µM) | 8 (≈ 9.41 µM) | 16 (≈ 18.8 µM) | 32 (≈ 37.6 µM) | 128 (≈ 151 µM) |  | > 128 | > 128 | > 128 | 75.3 | > 10 | 
CCC1OC(=O)CC(O)C(C)C(OC2OC(C)C(O)C(N(C)C)C2O)C(CCOc2ccccc2)CC(C)C(=O)C=CC(C)=CC1COC1OC(C)/C(=N/OC)C(OC)C1OC (stereo not shown) [Compound 7, 4"-O-Methoxyimino-20-DH-20-O-phenyl-desmycosin] | 1 (≈ 1.14 µM) | 1 (≈ 1.14 µM) | 1 (≈ 1.14 µM) | 1 (≈ 1.14 µM) | 1 (≈ 1.14 µM) | 1 (≈ 1.14 µM) |  | 0.5 (≈ 0.57 µM) |  |  | > 128 | > 128 | > 128 | > 128 | > 128 |  |  | MIC ([7]; agar-dilution, read-out: MIC): 2 µg/mL (≈ 2.28 µM); MIC ([9]; agar-dilution, read-out: MIC): 2 µg/mL (≈ 2.28 µM); MIC ([10]; agar-dilution, read-out: MIC): 4 µg/mL (≈ 4.56 µM)
CCC1OC(=O)CC(O)C(C)C(OC2OC(C)C(O)C(N(C)C)C2O)C(CCOc2ccccc2)CC(C)C(=O)C=CC(C)=CC1COC1OC(C)CC(=O)C1OC (stereo not shown) [Compound 52, 4"-Deoxy-3"-oxo-20-DH-20-O-phenyl-lactenocin] | 0.5 (≈ 0.611 µM) | 0.5 (≈ 0.611 µM) | 0.5 (≈ 0.611 µM) | 0.5 (≈ 0.611 µM) | 0.5 (≈ 0.611 µM) | 0.25 (≈ 0.306 µM) | 1 (≈ 1.22 µM) | 2 (≈ 2.44 µM) | 2 (≈ 2.44 µM) | 2 (≈ 2.44 µM) |  |  | > 128 | > 128 | > 128 | 79.4 | 10 | MIC [11]: 64 µg/mL (≈ 78.2 µM); MIC [12]: 64 µg/mL (≈ 78.2 µM)
CCC1OC(=O)CC(O)C(C)C(OC2OC(C)C(OC(C)=O)C(N(C)C)C2OC(C)=O)C(CCOc2ccccc2)CC(C)C(=O)C=CC(C)=CC1COC1OC(C)C(OS(=O)(=O)C(F)(F)F)C(OC)C1OC (stereo not shown) [Compound 40, 2',4'-Di-O-acetyl-20-DH-20-O-phenyl-4"-O-(trifluoromethanesulfonyl)-desmycosin] | 2 (≈ 1.88 µM) | 2 (≈ 1.88 µM) | 2 (≈ 1.88 µM) | 2 (≈ 1.88 µM) | 2 (≈ 1.88 µM) | 2 (≈ 1.88 µM) | 2 (≈ 1.88 µM) | 8 (≈ 7.5 µM) |  |  | > 128 | > 128 | > 128 | > 128 | > 128 |  |  | MIC ([9]; agar-dilution, read-out: MIC): > 128 µg/mL; MIC ([10]; agar-dilution, read-out: MIC): > 128 µg/mL
CCC1OC(=O)CC(O)C(C)C(OC2OC(C)C(O)C(N(C)C)C2O)C(CCOc2ccccc2)CC(C)C(=O)C=CC(C)=CC1COC1OC(C)C(OS(=O)(=O)Cc2ccccc2)C(OC)C1OC (stereo not shown) [Compound 17, 4"-O-Benzylsulfonyl-20-DH-20-O-phenyl-desmycosin] | 4 (≈ 3.98 µM) | 4 (≈ 3.98 µM) | 4 (≈ 3.98 µM) | 4 (≈ 3.98 µM) | 4 (≈ 3.98 µM) | 2 (≈ 1.99 µM) | 4 (≈ 3.98 µM) | 2 (≈ 1.99 µM) | 32 (≈ 31.9 µM) |  |  |  |  |  |  |  |  | MIC ([10]; agar-dilution, read-out: MIC): 128 µg/mL (≈ 127 µM); MIC [11]: > 128 µg/mL; MIC [12]: > 128 µg/mL; MIC (Escherichia coli EC14): > 128 µg/mL; MIC [13]: > 128 µg/mL; MIC [14]: > 128 µg/mL
